Laboratory results published in a melting point compilation (Tetko et al.; mined from patent text by program, amines drawn as free bases though some values may be those of a salt).

Molecule CCOC(=O)C(=O)N(CCOS(C)(=O)=O)N=Cc1ccccc1 has a melting point of 93 to 95 °C.
Brc1ccc(SCc2ncon2)cc1 gave a melting point of 56 °C.
Work on OC(CNC1CCc2ccccc2C1)COc1ccc2ccccc2c1 (stereo unspecified) yielded a melting point of 102 to 115 °C.
c1ccc(CN2CCC(Nc3cccnc3)CC2)cc1 gave a melting point of 131 to 133 °C.
Work on CC(=O)OC1CCC2(C)C3=CCC4(C)C(C(C)=O)CCC4C3CCC2C1 (stereo unspecified) yielded a melting point of 163 to 165 °C.
With NCC(O)COCCCCCCCCc1ccccc1 (stereo unspecified) the melting point was 50 to 54 °C.
With CCN(C=C1C(=O)N(c2cccc(Cl)c2)c2ccccc21)CC the melting point was 74 to 75.5 °C.
Molecule CCOc1ccc(-c2cc(C(F)(F)F)n3ncc(-c4ccncc4)c3n2)cc1C(F)(F)F has a melting point of 233 °C.
For Nc1ncnc2c1ncn2[C@@H]1C=C[C@H](CO)C1, the melting point was 121 to 124 °C.
With CC(=O)N(Cc1cc(Br)cc2[nH]c(=O)c(=O)[nH]c12)CP(=O)(O)O the melting point was > 280 °C.
Molecule COc1cc(COc2ccccc2O)cc(OC)c1 has a melting point of 55 to 57 °C.
CCCNC1=NS(=O)(=O)c2c(sc(C)c2C#N)N1 showed a melting point of 293 to 298 °C.
In the case of N#Cc1ccc(N(Cc2ccc3cc(O)ccc3c2)n2cnnc2)cc1, the melting point is reported as 281 to 284 °C.
Molecule COc1c(OCC(F)(F)F)ccnc1CO has a melting point of 107 to 108 °C.
For Cc1cc(-c2ccc(-c3ccc(OCC4CO4)cc3)cc2)ccc1OCC1CO1 (stereo unspecified), the melting point was 180 °C.
In the case of O=C(CCCCN1CCCC1)NNC(=O)N1Cc2ccccc2Oc2ccc(Cl)cc21, the melting point is reported as 133 to 135 °C.
For Cc1n[nH]c(Cn2ccnc2C)c1Oc1cc(Cl)cc(C#N)c1, the melting point was 212 to 214 °C.
CC(C)(C)c1ccc(C=C(CCCCCC2CCCCC2)COCc2ccccc2)cc1NC(=O)CC1c2ccccc2Oc2ccccc21 gave a melting point of 110 °C.
CC(=O)OCCC(=C(c1ccccc1)c1ccccc1)c1ccccc1 showed a melting point of 81 to 83 °C.
Molecule CC(=O)Oc1ccc(N=c2scc(-c3ccc(Cl)c(S(=O)(=O)N(C)C)c3)n2C)cc1 has a melting point of 173 to 174 °C.
For O=C(N[C@H]1CC[C@H](CCN2CCN(c3nccc4c3OCC4)CC2)CC1)c1ccc(Cl)cc1Cl, the melting point was 244 °C.
With O=[N+]([O-])c1ccc(CO)c(CCO)c1 the melting point was 79 to 81 °C.
CCN(Cc1ccccc1)C(=O)Cc1c(-c2ccc(Cl)cc2)nc2cc(C)ccn12 gave a melting point of 192 to 193 °C.
In the case of Cc1ccccc1NC(=O)c1ccccc1[Si](C)(C)C, the melting point is reported as 117 to 119 °C.
For O=C(NCCc1ccc(O)c(O)c1)OCc1ccccc1, the melting point was 129 to 130 °C.
For CC1CCC(NS(N)(=O)=O)CC1 (stereo unspecified), the melting point was 109 to 110 °C.
For N#Cc1ncn2c1[C@@H]1CCCN1C(=O)c1c(Cl)cccc1-2, the melting point was 237 to 238 °C.
CCOCCc1c(N=[N+]=[N-])nc(NC(=O)NCC(=O)O)nc1-c1ccccc1 gave a melting point of 160 °C.
For CCCCC(=N)NC(=O)Nc1ccc(N)cc1, the melting point was 102 to 103 °C.
In the case of Nc1nc(=O)[nH]c2cccnc12, the melting point is reported as > 300 °C.
With CC(C)(C)c1cccc(C(=O)Nc2ccccc2C(=O)NCCc2ncc[nH]2)c1 the melting point was 205 to 210 °C.
With CCNc1nc2ccc(CCc3ccccn3)cc2o1 the melting point was 57 to 59 °C.
Molecule Cc1cc(C)c2c(c1)OC(C)(COc1ccc([N+](=O)[O-])cc1)CC2=O (stereo unspecified) has a melting point of 86 to 88.5 °C.
In the case of NC1=Nc2ccccc2CC1, the melting point is reported as 135 to 136 °C.
For CC(C)(C)OC(=O)CCc1cc(C#N)nc(-c2nc(=O)c3ccccc3s2)c1, the melting point was 190 to 191 °C.
For O=c1cc(COC2CCCCO2)occ1O (stereo unspecified), the melting point was 94 °C.
With Cn1c(CCCO)nc2cccnc21 the melting point was > 300 °C.
In the case of CC(C)CCOc1ccc(-c2c(Cl)c(CN3C(=O)CCC3=O)nc3sc4c(c23)CCNC4)cc1, the melting point is reported as 226 to 227 °C.
COC(=O)c1c(Cc2ccc(C(=O)NC(C)(C)CC(=O)N(C)C)cc2)c(=O)c2ccc(Cl)cc2n1-c1ccccc1 showed a melting point of 84.1 to 95.5 °C.
Work on CCCCCNC(=O)N(C)c1cccc(-c2ccc(C=C(OC)C(=O)O)cc2)c1 yielded a melting point of 144 °C.
Work on C=C(C)COC(=O)N1CCN(c2c(C(=O)N3CCN(C)CC3)c3ccccc3n2-c2ccccc2)CC1 yielded a melting point of 141 to 143 °C.
